Key:
[1] = target: T1, BRG-1 (Homo sapiens, UniProt P51532); assay: ATPase catalytic activity assay (ADP-Glo), BRG-1; format: biochemical; conditions: Table 10, read-out: BRG1 IC50
T1 construct: made in house; host or cells: High Five insect cells
Method: (§1) The ATPase catalytic activity of BRM or BRG-1 was measured by an in vitro biochemical assay using ADP-Glo™ (Promega, V9102). The ADP-Glo™ kinase assay is performed in two steps once the reaction is complete. The first step is to deplete any unconsumed ATP in the reaction. The second step is to convert the reaction product ADP to ATP, which will be utilized by the luciferase to generate luminesce and be detected by a luminescence reader, such as Envision.
Then, following addition of 5 μL of ADP-Glo™ Reagent provided in the kit, the reaction incubates at room temperature for 40 minutes. Then, 10 μL of Kinase Detection Reagent provided in the kit is added to convert ADP to ATP, and the reaction incubates at room temperature for 60 minutes. Finally, luminescence measurement is collected with a plate-reading luminometer, such as Envision.

[2] = target: T2, BRM (Homo sapiens, UniProt P51531); assay: ATPase catalytic activity assay (ADP-Glo), BRM; format: biochemical; conditions: Table 10; for Ratio (BRG1 IC50 (μM) divided by BRM IC50 (μM)): ATPase assay, selectivity BRG1/BRM; for IC50: ATPase catalytic activity assay (ADP-Glo)
T2 construct: made in house; host or cells: High Five insect cells
Method: as §1
The assay reaction mixture […] contains 30 nM of BRM or BRG-1, 20 nM salmon sperm DNA (from Invitrogen, UltraPure™ Salmon Sperm DNA Solution, cat #15632011), and 400 μM of ATP in the ATPase assay buffer, which comprises of 20 mM Tris, pH 8, 20 mM MgCl2, 50 mM NaCl, 0.1% Tween-20, and 1 mM fresh DTT (Pierce™ DTT (Dithiothreitol), cat #20290). The reaction is initiated by the addition of the 2.5 μL ATPase solution to 2.5 μL ATP/DNA solution on low volume white Proxiplate-384 plus plate (PerkinElmer, cat #6008280) and incubates at room temperature for 1 hour. Then, following addition of 5 μL of ADP-Glo™ Reagent provided in the kit, the reaction incubates at room temperature for 40 minutes. Then, 10 μL of Kinase Detection Reagent provided in the kit is added to convert ADP to ATP, and the reaction incubates at room temperature for 60 minutes. Finally, luminescence measurement is collected with a plate-reading luminometer, such as Envision.

T1 sequence (P51532 whole entry): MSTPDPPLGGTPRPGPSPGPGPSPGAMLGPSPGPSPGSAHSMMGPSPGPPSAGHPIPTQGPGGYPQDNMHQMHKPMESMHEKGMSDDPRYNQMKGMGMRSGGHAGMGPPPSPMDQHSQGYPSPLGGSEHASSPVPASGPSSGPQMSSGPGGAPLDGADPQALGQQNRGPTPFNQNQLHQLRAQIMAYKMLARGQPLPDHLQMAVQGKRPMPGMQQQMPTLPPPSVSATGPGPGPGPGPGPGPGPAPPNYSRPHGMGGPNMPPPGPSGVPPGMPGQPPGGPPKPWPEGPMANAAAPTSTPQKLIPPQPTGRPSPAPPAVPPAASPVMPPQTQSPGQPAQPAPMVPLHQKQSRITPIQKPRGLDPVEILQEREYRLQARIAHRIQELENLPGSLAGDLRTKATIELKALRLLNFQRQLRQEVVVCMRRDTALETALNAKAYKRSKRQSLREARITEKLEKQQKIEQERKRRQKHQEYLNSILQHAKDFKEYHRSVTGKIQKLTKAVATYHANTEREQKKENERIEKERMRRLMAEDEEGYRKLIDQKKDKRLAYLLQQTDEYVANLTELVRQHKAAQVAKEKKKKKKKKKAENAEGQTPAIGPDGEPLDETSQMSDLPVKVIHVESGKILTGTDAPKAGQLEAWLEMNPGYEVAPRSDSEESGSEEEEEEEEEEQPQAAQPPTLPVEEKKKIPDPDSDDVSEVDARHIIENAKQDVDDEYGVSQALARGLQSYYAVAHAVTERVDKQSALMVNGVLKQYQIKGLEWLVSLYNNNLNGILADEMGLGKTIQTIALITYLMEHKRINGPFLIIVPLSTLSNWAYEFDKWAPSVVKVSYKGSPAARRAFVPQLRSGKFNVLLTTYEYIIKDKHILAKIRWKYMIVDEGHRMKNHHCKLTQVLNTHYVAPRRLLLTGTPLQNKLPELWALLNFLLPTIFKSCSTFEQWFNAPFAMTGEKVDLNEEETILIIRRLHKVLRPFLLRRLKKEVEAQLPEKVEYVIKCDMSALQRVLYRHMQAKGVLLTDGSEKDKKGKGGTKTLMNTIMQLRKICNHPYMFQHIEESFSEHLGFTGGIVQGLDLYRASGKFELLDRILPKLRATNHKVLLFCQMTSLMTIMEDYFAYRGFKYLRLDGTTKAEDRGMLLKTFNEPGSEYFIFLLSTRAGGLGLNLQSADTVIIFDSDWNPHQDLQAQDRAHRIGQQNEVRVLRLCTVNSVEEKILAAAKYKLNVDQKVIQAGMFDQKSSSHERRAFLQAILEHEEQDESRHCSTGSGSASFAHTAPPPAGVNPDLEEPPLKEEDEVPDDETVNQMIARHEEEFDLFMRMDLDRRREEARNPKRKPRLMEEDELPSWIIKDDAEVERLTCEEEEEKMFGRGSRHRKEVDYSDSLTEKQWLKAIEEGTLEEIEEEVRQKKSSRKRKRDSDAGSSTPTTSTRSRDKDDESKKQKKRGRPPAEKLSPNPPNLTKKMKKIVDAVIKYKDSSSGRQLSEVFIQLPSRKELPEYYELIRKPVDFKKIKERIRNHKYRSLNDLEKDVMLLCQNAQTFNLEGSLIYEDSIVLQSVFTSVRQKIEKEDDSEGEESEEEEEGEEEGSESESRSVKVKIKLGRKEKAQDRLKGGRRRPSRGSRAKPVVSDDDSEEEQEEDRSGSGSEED
T2 sequence (P51531 whole entry): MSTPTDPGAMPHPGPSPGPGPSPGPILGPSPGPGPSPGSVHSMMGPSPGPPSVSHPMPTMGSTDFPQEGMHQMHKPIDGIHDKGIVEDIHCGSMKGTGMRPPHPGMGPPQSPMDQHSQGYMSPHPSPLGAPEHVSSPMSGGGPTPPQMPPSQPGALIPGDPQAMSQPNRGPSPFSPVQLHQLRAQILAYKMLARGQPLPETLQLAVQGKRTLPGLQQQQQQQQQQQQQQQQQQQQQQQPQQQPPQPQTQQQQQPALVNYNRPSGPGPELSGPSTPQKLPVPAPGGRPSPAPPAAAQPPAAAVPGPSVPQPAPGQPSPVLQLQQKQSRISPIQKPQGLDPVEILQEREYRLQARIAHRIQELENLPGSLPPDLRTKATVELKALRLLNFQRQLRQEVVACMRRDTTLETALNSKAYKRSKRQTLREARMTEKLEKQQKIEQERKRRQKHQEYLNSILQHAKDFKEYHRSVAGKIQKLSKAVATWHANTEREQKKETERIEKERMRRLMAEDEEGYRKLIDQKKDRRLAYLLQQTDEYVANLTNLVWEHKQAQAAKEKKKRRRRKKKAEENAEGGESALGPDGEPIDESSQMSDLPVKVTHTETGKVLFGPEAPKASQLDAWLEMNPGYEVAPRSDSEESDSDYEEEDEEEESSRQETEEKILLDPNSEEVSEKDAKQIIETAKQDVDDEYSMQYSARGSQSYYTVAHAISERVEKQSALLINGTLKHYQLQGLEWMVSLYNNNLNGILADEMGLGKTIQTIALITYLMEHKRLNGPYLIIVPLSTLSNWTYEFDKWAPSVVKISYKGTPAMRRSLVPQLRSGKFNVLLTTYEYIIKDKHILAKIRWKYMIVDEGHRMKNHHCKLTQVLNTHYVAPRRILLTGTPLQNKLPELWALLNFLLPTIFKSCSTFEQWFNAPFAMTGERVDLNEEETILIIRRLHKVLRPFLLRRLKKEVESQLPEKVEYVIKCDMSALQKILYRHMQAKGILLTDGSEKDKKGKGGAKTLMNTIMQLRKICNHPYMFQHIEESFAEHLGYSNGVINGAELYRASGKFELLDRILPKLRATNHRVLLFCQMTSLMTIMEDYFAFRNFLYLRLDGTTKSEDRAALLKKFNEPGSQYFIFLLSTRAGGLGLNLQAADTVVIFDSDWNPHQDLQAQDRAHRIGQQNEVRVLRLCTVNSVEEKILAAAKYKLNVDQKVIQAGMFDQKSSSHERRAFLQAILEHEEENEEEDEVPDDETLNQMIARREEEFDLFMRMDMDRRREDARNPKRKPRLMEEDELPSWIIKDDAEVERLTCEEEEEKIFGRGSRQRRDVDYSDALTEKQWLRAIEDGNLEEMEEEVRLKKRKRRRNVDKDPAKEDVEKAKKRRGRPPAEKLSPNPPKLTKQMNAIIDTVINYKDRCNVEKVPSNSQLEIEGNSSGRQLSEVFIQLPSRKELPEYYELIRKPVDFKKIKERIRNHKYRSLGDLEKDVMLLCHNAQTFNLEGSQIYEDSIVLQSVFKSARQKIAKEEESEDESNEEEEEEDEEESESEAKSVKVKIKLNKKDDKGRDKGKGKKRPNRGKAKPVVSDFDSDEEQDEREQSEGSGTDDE

Row | IC50 [1] [nM] | Ratio (BRG1 IC50 (μM) divided by BRM IC50 (μM)) [2] | IC50 [2] [nM] | Structure (SMILES)
1 | 42.3 | – | – | COCCOc1ccc2c(c1)OCCN2c1ccc2cnc(CNC(=O)c3cc(F)c4c(c3)S(=O)(=O)[C@@H](F)CCO4)cc2n1 [Compound 93]
2 | 385 | 28.86 | 9.4 | O=C(NCc1cc2cc(-c3cncc(C4CCC4)n3)ccc2cn1)c1cc(F)c2c(c1)S(=O)(=O)[C@@H](F)CCO2 [Compound 283]
3 | 111 | 18.60 | 4.5 | CCOc1ccnc2c1OCCN2c1ccc2cnc(CNC(=O)c3cc(F)c4c(c3)S(=O)(=O)[C@@H](F)CCO4)cc2n1 [Compound 129]
4 | 136 | – | – | O=C(NCc1cc2nc(N3CCOc4c(N5CC6(CC6)C5)ccnc43)ccc2cn1)c1cc(F)c2c(c1)S(=O)(=O)[C@@H](F)COC2 [Compound 212]
5 | 168 | 17.20 | 9.8 | O=C(NCc1cc2nc(N3CCCc4cc(C5COC5)cnc43)ccc2cn1)c1cc(F)c2c(c1)S(=O)(=O)[C@@H](F)CCO2 [Compound 293]
6 | 177 | – | – | O=C(NCc1cc2nc(N3CCOc4ccc(N5CCC5)nc43)ccc2cn1)c1cc(F)c2c(c1)S(=O)(=O)[C@@H](F)CCO2 [Compound 264]
7 | 4130 | – | – | C#Cc1cc(C(=O)NCc2cc3nc(-c4cccc(N5C[C@@H](C)O[C@@H](C)C5)n4)ccc3cn2)cc2c1OCC[C@H](F)S2(=O)=O [Compound 314]
8 | 76.2 | – | – | C[C@H]1CCN1c1cnc2c(c1)OCCN2c1ccc2cnc(CNC(=O)c3cc(F)c4c(c3)S(=O)(=O)[C@@H](F)CCO4)cc2n1 [Compound 233]
9 | 167 | – | – | COCC1CN(c2ccc3c(c2)N(c2ccc4cnc(CNC(=O)c5cc(F)c6c(c5)S(=O)(=O)[C@@H](F)CCO6)cc4n2)CCO3)C1 [Compound 219]
10 | 17.9 | – | – | O=C(NCc1cc2nc(N3CCOc4cc(N5CC(F)C5)cnc43)ccc2cn1)c1ccc2c(c1)S(=O)(=O)[C@@H](F)CCOC2 [Compound 7]
11 | 83 | – | – | COc1nc(C(F)F)ccc1-c1ccc2cnc(CNC(=O)c3cc(C(F)F)c4c(c3)S(=O)(=O)[C@@H](F)COC4)cc2n1 [Compound 234]
12 | 103 | – | – | O=C(NCc1cc2nc(N3CCOc4ccc([C@@H]5C[C@@H]5F)nc43)ccc2cn1)c1cc(F)c2c(c1)S(=O)(=O)[C@@H](F)COC2 [Compound 209]
13 | 88.9 | – | – | O=C(NCc1cc2nc(N3CCOc4ccc(OC(F)F)nc43)ccc2cn1)c1cc(F)c2c(c1)S(=O)(=O)[C@@H](F)CCO2 [Compound 126]
14 | 99 | – | – | C[C@@H]1CN(c2cccc(/C=C/c3ccnc(CNC(=O)c4cc(Cl)c5c(c4)S(=O)(=O)[C@@H](F)COC5)c3)n2)C[C@H](C)O1 [Compound 107]
15 | 82.4 | – | – | O=C(NCc1cc2nc(N3CCOc4cc(C5CC5)cnc43)ccc2cn1)c1cc(F)c2c(c1)S(=O)(=O)[C@@H](F)CCO2 [Compound 241]
16 | 111 | – | – | C[C@@H]1CCCN1c1cnc2c(c1)OCCN2c1ccc2cnc(CNC(=O)c3cc(F)c4c(c3)S(=O)(=O)[C@@H](F)CCO4)cc2n1 [Compound 243]
17 | 21.3 | – | – | Cc1cnc2c(c1)OCCN2c1ccc2cnc(CNC(=O)c3cc(F)c4c(c3)S(=O)(=O)[C@@H](F)COC4)cc2n1 [Compound 6, (R)-2,6-difluoro-N-((2-(7-methyl-2,3-dihydro-4H-pyrido[3,2-b][1,4]oxazin-4-yl)-1,6-naphthyridin-7-yl)methyl)-2,3-dihydro-5H-benzo[e][1,4]oxathiepine-8-carboxamide 1,1-dioxide]
18 | 246 | – | – | COc1nc([C@@H](C)F)ccc1-c1ccc2cnc(CNC(=O)c3cc(Cl)c4c(c3)S(=O)(=O)[C@@H](F)COC4)cc2n1 [Compound 242]

Further lines, the compound ahead of its results:

Row | Structure (SMILES) | IC50 [1] [nM] | Ratio (BRG1 IC50 (μM) divided by BRM IC50 (μM)) [2] | IC50 [2] [nM]
19 | O=C(NCc1cc2nc(-c3cccc(OC(F)F)n3)ccc2cn1)c1cc(Cl)c2c(c1)S(=O)(=O)[C@@H](F)CCO2 [Compound 225] | 461 | 49.95 | 7.1
20 | COc1nscc1-c1ccc2cnc(CNC(=O)c3cc(F)c4c(c3)S(=O)(=O)[C@@H](F)CCO4)cc2n1 [Compound 288] | 203 | 26.09 | 9.6
21 | CCO[C@@H]1CCN(c2cccc(-c3ccc4cnc(CNC(=O)c5cc(F)c6c(c5)S(=O)(=O)[C@@H](F)COC6)cc4n3)n2)C1 [Compound 12] | 16.2 | 11.63 | 1.4
22 | C[C@H]1N(c2cnc3c(c2)OCCN3c2ccc3cnc(CNC(=O)c4cc(F)c5c(c4)S(=O)(=O)[C@@H](F)CCO5)cc3n2)CC1(F)F [Compound 269] | 110 | 11.77 | 8.9
23 | O=C(NCc1cc2nc(N3CCOc4ccc(C5CC5)nc43)ccc2cn1)c1ccc2c(c1)S(=O)(=O)[C@@H](F)CCO2 [Compound 96] | 86.4 | 22.86 | 3.4
24 | COc1nc([C@](C)(F)C(F)F)ccc1-c1ccc2cnc(CNC(=O)c3ccc4c(c3)S(=O)(=O)[C@@H](F)CCOC4)cc2n1 [Compound 43] | 40.6 | – | 2
25 | COc1nc(C(F)F)ccc1-c1ccc2cnc(CNC(=O)c3cc(F)c4c(c3)S(=O)(=O)[C@@H](F)COC4)cc2n1 [Compound 53] | 54.3 | 19.48 | 2.5
26 | O=C(NCc1cc2nc(-c3cncc(N4CCCC4)n3)ccc2cn1)c1cc(F)c2c(c1)S(=O)(=O)[C@@H](F)CCO2 [Compound 220] | 148 | – | –
27 | O=C(NCc1cc2cc(-c3cccc(C4CC4)n3)ccc2cn1)c1cc(F)c2c(c1)S(=O)(=O)[C@@H](F)CCO2 [Compound 291] | 206 | – | –
28 | C[C@@H]1OC[C@H](F)S(=O)(=O)c2cc(C(=O)NCc3cc4nc(N5CCOc6cc(C7CC7)cnc65)ccc4cn3)ccc21 [Compound 49] | 44 | – | –
29 | O=C(NCc1cc2nc(N3CCOc4ccc(C(F)F)nc43)ccc2cn1)c1cc(Cl)c2c(c1)S(=O)(=O)[C@@H](F)COC2 [Compound 208] | 239 | – | –
30 | O=C(NCc1cc2nc(N3CCOc4cc(OCC(F)F)cnc43)ccc2cn1)c1cc(F)c2c(c1)S(=O)(=O)[C@@H](F)COC2 [Compound 213] | 90.3 | – | –
31 | CCOc1ccnc2c1OCCN2c1ccc2cnc(CNC(=O)c3cc(Cl)c4c(c3)S(=O)(=O)[C@@H](F)CCO4)cc2n1 [Compound 94] | 58.6 | – | –
32 | C[C@@H]1C[C@H](C)N1c1cnc2c(c1)OCCN2c1ccc2cnc(CNC(=O)c3cc(F)c4c(c3)S(=O)(=O)[C@@H](F)CCO4)cc2n1 [Compound 218] | 90.6 | – | –
33 | COc1cc(C(=O)NCc2cc3nc(-c4ccc(OC(F)F)c(C5CC5)n4)ccc3cn2)cc2c1COC[C@H](F)S2(=O)=O [Compound 329] | 1350 | – | –
34 | O=C(NCc1cc2nc(N3CCOc4cc(N5C[C@@H](F)[C@H](F)C5)cnc43)ccc2cn1)c1cc(Cl)c2c(c1)S(=O)(=O)[C@@H](F)CCO2 [Compound 258, (R)-9-chloro-N-((2-(7-((3R,4R)-3,4-difluoropyrrolidin-1-yl)-2,3-dihydro-4H-pyrido[3,2-b][1,4]oxazin-4-yl)-1,6-naphthyridin-7-yl)methyl)-4-fluoro-3,4-dihydro-2H-benzo[b][1,4]oxathiepine-7-carboxamide 5,5-dioxide] | 102 | – | –
35 | CO[C@H]1C[C@@H]1N(C)c1cccc(-c2ccc3cnc(CNC(=O)c4cc(F)c5c(c4)S(=O)(=O)[C@@H](F)COC5)cc3n2)n1 [Compound 211] | 61.6 | – | –
36 | O=C(NCc1cc2cc(-c3cccc(C(F)F)n3)ccc2cn1)c1cc(F)c2c(c1)S(=O)(=O)[C@@H](F)COC2 [Compound 232] | 140 | – | –
37 | CN(C)c1cnc2c(c1)OCCN2c1ccc2cnc(CNC(=O)c3cc(F)c4c(c3)S(=O)(=O)[C@@H](F)CCO4)cc2n1 [Compound 106] | 35.3 | – | –
38 | O=C(NCc1cc2nc(-c3cccc([C@H]4CC4(F)F)n3)ccc2cn1)c1cc(F)c2c(c1)S(=O)(=O)[C@@H](F)COC2 [Compound 128] | 123 | – | –
39 | C[C@@H]1CCN1c1cc2c(cn1)N(c1ccc3cnc(CNC(=O)c4cc(F)c5c(c4)S(=O)(=O)[C@@H](F)COC5)cc3n1)CCO2 [Compound 214] | 72 | – | –
40 | CCO[C@@H]1CCN(c2cccc(-c3ccc4cnc(CNC(=O)c5cc(F)c6c(c5)S(=O)(=O)[C@@H](F)CCO6)cc4n3)n2)C1 [Compound 92] | 39 | – | –
41 | COc1nc(C(F)(F)F)ccc1-c1ccc2cnc(CNC(=O)c3cc(F)c4c(c3)S(=O)(=O)[C@@H](F)COC4)cc2n1 [Compound 127] | 72.5 | – | –
42 | [2H]C([2H])([2H])Oc1ccc(-c2ccc3cnc(CNC(=O)c4cc(F)c5c(c4)S(=O)(=O)[C@@H](F)CCO5)cc3n2)nc1C1CC1 [Compound 257] | 108 | – | –
43 | CCOc1cccc(-c2ccc3cnc(CNC(=O)c4cc(F)c5c(c4)S(=O)(=O)[C@@H](F)CCO5)cc3n2)n1 [Compound 330] | 351 | – | –
